Test results as given in ChEMBL document CHEMBL3867480 (Bioorg Med Chem, 2016).
Values after ≈ are worked out from the molar mass of the structure shown.

What was measured:
[1] = target: Macrophage metalloelastase (Homo sapiens, UniProt P39900); assay: Inhibition of recombinant human […]-activated MMP12 using Cy3-PLGLK(Cy5Q)AR-NH2 as substrate measured after 40 mins by spectrofluorimetric method
[2] = target: Disintegrin and metalloproteinase domain-containing protein 17 (Homo sapiens, UniProt P78536); assay: Inhibition of recombinant human TACE using Cy3-PLAQAV(Cy5Q-L-2,3-diaminopropionic acid)-RSSSR-NH2 as substrate measured after 40 mins by spectrofluorimetric method
Neutrophil collagenase = Neutrophil collagenase (Homo sapiens, UniProt P22894); assay: Inhibition of recombinant human […]-activated MMP8 using Cy3-PLGLK(Cy5Q)AR-NH2 as substrate measured after 40 mins by spectrofluorimetric method
Matrilysin = target: T1, Matrilysin (Homo sapiens, UniProt P09237); assay: Inhibition of recombinant human […]-activated MMP7 using Cy3-PLGLK(Cy5Q)AR-NH2 as substrate measured after 40 mins by spectrofluorimetric method
T1 sequence (P09237 whole entry): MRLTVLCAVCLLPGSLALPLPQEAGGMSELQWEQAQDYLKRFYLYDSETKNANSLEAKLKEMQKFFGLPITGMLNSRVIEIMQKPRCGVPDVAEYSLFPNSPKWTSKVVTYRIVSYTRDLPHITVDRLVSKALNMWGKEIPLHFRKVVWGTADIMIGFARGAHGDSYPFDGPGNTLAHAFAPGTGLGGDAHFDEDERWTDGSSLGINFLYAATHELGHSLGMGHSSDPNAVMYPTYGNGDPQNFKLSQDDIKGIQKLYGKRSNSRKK

Collagenase 3 = Collagenase 3 (Homo sapiens, UniProt P45452)
Description: Inhibition of recombinant human AMPA-activated MMP13 using Cy3-PLGLK(Cy5Q)AR-NH2 as substrate measured after 40 mins by spectrofluorimetric method

Stromelysin-1 = Stromelysin-1 (Homo sapiens, UniProt P08254); assay: Inhibition of recombinant human […]-activated MMP3 using Cy3-PLGLK(Cy5Q)AR-NH2 as substrate measured after 40 mins by spectrofluorimetric method
[3] = target: 72 kDa type IV collagenase (Homo sapiens, UniProt P08253); assay: Inhibition of recombinant human […]-activated MMP2 using Cy3-PLGLK(Cy5Q)AR-NH2 as substrate measured after 40 mins by spectrofluorimetric method
Interstitial collagenase = target: T2, Interstitial collagenase (Homo sapiens, UniProt P03956); assay: Inhibition of recombinant human […]-activated MMP1 using Cy3-PLGLK(Cy5Q)AR-NH2 as substrate measured after 40 mins by spectrofluorimetric method
T2 sequence (P03956 whole entry): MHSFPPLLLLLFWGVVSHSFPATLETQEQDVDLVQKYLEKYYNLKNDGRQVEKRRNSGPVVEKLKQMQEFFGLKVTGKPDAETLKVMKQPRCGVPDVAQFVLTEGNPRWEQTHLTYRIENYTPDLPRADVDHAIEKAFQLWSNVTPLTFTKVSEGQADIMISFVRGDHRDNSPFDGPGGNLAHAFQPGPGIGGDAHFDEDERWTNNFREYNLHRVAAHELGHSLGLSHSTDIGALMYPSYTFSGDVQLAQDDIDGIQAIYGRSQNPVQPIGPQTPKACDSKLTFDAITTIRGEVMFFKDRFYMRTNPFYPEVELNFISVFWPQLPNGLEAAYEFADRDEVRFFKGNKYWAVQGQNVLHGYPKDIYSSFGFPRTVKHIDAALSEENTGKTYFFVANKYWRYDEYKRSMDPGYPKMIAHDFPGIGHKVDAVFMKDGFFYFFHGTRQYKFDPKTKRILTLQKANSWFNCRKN

Stromelysin-2 = Stromelysin-2 (Homo sapiens, UniProt P09238); assay: Inhibition of recombinant human […]-activated MMP10 using Cy3-PLGLK(Cy5Q)AR-NH2 as substrate measured after 40 mins by spectrofluorimetric method
[4] = target: Matrix metalloproteinase-9 (Homo sapiens, UniProt P14780); assay: Inhibition of recombinant human […]-activated MMP9 using Cy3-PLGLK(Cy5Q)AR-NH2 as substrate measured after 40 mins by spectrofluorimetric method
[5] = target: Matrix metalloproteinase-14 (Homo sapiens, UniProt P50281); assay: Inhibition of recombinant human GST-tagged MMP14 using Cy3-PLGLK(Cy5Q)AR-NH2 as substrate measured after 40 mins by spectrofluorimetric method
[6] = Permeability of the compound at pH 7.4 by PAMPA assay; type: ADME; details: read-out: permeability
CYP3A4 = CYP3A4 (Homo sapiens, UniProt P08684); assay: Inhibition of CYP3A4 (unknown origin) at 10 uM; type: ADME
[7] = Clearance in human liver microsomes; type: ADME; details: read-out: CLH
[8] = Solubility of the compound at pH 6.8; type: physicochemical; details: buffer
[9] = Clearance in rat liver microsomes; type: ADME; details: read-out: CLH
[10] = Oral bioavailability in rat at 1 mg/kg; type: ADME, organism-based; details: in vivo
[11] = Clearance in rat at 0.1 mg/kg, iv or 1 mg/kg, po; type: ADME, organism-based; details: in vivo
[12] = Volume of distribution in rat at 0.1 mg/kg, iv or 1 mg/kg, po; type: ADME, organism-based; details: in vivo

Stromelysin-2, sequence (P09238 whole entry): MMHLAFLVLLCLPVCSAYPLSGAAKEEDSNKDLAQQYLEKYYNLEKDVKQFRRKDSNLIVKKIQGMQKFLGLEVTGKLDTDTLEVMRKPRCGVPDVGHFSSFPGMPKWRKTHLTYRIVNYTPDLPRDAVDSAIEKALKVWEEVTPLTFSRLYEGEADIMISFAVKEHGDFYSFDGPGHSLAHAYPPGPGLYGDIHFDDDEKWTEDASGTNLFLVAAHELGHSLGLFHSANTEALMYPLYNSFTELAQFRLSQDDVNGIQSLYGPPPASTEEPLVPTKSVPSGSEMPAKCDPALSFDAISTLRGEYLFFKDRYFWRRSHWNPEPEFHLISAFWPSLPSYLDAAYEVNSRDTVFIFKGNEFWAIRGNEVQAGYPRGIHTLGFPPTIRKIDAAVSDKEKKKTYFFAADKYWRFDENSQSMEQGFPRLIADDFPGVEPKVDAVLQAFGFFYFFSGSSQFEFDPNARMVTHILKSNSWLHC
CYP3A4, sequence (P08684 whole entry): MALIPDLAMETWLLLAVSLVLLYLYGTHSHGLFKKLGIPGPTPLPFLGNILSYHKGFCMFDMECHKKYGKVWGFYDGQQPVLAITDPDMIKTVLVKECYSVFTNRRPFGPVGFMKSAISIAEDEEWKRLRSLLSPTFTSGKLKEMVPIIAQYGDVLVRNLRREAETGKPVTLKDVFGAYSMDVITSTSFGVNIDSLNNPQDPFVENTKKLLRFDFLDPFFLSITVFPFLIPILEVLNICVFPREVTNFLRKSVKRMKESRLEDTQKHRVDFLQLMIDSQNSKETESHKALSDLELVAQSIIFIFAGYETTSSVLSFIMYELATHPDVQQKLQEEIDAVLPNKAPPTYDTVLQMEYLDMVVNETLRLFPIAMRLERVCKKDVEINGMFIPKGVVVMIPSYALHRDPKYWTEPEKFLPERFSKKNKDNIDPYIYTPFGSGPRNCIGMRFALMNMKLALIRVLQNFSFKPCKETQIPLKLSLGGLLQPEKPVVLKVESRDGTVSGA
72 kDa type IV collagenase, sequence (P08253 whole entry): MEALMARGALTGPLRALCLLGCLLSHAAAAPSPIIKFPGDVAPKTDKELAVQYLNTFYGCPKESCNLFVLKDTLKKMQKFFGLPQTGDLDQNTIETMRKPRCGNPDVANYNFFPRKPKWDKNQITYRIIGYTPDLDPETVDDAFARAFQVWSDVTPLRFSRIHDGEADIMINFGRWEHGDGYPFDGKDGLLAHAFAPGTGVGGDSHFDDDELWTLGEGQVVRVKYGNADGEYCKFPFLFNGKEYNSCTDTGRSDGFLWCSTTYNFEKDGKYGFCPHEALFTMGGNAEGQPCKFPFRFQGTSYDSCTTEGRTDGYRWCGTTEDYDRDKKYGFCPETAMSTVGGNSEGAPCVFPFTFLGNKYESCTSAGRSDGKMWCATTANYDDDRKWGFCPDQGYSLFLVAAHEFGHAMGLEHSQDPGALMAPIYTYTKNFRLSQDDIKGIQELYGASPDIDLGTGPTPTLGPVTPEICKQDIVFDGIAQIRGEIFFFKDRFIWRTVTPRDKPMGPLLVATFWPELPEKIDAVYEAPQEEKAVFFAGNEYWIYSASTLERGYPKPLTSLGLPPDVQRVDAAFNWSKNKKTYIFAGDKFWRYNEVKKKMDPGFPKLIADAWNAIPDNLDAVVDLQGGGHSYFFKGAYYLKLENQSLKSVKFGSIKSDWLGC
Disintegrin and metalloproteinase domain-containing protein 17, sequence (P78536 whole entry, the tested form may be a part): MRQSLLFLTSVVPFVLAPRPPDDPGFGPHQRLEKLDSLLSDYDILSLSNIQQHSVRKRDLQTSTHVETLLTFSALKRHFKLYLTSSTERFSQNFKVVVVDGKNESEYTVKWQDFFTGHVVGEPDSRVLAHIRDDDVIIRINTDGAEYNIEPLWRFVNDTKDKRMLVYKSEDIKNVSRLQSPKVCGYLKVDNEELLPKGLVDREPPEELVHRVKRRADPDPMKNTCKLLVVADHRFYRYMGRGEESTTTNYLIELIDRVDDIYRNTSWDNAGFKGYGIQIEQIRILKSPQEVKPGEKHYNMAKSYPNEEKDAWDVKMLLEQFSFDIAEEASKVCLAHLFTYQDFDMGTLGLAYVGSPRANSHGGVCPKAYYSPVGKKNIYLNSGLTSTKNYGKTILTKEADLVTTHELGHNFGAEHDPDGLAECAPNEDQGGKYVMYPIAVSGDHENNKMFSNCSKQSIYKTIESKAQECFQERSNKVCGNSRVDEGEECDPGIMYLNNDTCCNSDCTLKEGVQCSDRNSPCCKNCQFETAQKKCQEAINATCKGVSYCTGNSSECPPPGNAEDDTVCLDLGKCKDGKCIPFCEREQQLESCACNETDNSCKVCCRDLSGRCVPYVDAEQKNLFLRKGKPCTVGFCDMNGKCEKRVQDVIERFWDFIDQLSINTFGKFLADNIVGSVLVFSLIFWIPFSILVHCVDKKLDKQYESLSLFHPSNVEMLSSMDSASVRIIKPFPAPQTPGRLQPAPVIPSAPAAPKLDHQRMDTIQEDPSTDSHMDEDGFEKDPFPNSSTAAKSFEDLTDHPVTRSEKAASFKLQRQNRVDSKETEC
Neutrophil collagenase, sequence (P22894 whole entry): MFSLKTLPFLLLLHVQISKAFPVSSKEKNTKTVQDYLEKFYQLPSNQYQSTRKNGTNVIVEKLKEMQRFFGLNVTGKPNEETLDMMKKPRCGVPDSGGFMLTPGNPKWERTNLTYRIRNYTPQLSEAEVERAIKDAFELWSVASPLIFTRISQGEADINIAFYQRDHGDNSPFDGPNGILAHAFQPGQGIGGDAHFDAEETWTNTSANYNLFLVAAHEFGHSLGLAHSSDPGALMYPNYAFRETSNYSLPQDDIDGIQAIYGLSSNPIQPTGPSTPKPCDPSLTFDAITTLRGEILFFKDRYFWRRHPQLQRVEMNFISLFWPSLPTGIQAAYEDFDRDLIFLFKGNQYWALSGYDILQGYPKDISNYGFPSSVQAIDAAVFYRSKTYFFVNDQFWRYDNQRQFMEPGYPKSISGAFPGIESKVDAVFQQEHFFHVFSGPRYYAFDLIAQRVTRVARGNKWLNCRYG
Stromelysin-1, sequence (P08254 whole entry): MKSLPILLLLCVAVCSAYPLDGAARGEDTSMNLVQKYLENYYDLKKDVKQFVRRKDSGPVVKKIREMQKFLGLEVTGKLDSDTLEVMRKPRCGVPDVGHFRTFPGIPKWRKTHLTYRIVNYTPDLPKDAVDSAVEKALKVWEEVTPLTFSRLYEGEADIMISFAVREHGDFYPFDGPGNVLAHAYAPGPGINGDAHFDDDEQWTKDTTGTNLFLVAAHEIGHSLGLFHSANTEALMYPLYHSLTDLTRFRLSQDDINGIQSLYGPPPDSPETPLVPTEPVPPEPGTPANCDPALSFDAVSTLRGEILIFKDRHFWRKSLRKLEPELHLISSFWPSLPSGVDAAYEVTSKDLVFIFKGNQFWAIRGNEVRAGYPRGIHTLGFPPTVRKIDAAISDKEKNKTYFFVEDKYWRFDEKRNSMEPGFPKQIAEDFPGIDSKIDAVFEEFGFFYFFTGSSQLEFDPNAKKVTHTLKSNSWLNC
Macrophage metalloelastase, sequence (P39900 whole entry, the tested form may be a part): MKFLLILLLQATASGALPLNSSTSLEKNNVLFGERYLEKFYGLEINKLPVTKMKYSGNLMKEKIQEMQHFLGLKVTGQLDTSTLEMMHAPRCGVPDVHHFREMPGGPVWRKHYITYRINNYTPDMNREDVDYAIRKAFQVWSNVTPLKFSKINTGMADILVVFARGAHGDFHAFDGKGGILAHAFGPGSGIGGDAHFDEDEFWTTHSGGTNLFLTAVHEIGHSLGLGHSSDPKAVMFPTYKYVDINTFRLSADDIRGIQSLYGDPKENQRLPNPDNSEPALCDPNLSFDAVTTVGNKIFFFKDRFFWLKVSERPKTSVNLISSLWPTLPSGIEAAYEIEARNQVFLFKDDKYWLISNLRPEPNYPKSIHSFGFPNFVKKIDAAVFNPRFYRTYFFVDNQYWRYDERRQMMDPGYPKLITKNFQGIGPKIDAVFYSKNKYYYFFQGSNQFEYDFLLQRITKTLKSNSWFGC
Matrix metalloproteinase-9, sequence (P14780 whole entry): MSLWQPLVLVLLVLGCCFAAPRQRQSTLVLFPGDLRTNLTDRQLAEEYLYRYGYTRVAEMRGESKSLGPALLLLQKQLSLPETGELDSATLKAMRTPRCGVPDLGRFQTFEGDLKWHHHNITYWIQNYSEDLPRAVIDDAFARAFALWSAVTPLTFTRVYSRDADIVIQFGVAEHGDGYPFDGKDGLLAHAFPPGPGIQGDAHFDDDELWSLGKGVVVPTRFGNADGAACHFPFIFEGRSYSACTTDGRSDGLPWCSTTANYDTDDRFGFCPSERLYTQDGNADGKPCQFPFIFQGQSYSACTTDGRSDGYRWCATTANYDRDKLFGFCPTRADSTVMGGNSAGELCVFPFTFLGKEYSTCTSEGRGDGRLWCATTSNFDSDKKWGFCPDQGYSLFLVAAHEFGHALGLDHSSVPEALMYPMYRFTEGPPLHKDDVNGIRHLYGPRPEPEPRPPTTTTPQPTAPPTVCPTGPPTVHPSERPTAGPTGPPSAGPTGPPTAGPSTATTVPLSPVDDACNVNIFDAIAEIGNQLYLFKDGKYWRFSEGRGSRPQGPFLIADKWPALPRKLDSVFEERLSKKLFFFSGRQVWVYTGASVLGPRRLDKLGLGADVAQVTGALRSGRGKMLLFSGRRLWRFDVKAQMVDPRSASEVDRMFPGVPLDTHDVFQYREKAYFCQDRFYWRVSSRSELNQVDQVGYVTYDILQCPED

SMILES | IC50 [1] [nM] | IC50 [2] [nM] | IC50 (Neutrophil collagenase) [nM] | IC50 (Matrilysin) [nM] | IC50 (Collagenase 3) [nM] | IC50 (Stromelysin-1) [nM] | IC50 [3] [nM] | IC50 (Interstitial collagenase) [nM] | IC50 (Stromelysin-2) [nM] | IC50 [4] [nM] | IC50 [5] [nM] | Papp [6] [×10⁻⁶ cm/s] | inhibition at 10 µM (CYP3A4) [%] | microsomal CLint [7] [µL/min/mg] | solubility [8] [µg/mL] | microsomal CLint [9] [µL/min/mg] | bioavailability [10] [%] | clearance [11] [mL/min/kg] | Vd [12] [L/kg]
O=C(NCc1cccc(OCCCS(=O)(=O)N2CCCCC2C(=O)NO)c1)c1nc2ccccc2c(=O)[nH]1 (stereo not given) | 1.8 | 510 | 1.2 | 2000 | 0.052 | 2.6 | 0.57 | > 10000 | 2.6 | 72 | 550 |  |  |  |  |  |  |  | 
O=C(NCc1cccc(N2CCN(C(=O)Cc3c[nH]cn3)CC2)c1)c1nc2ccccc2c(=O)[nH]1 |  |  | 45 |  | 1.7 |  | 120 |  | 460 |  |  |  |  |  |  |  |  |  | 
O=C(NCc1cccc(N2CCN(C(=O)Cc3n[nH]c(=O)[nH]3)CC2)c1)c1nc2ccccc2c(=O)[nH]1 | 260 | > 10000 | 3.9 | > 10000 | 0.11 | 23 | 10 | > 10000 | 6.2 | 2900 | 8900 |  |  |  |  |  |  |  | 
O=C(NCc1cccc(OCCCOc2nc[nH]n2)c1)c1nc2scc(-c3cccc(Cl)c3)c2c(=O)[nH]1 |  |  | > 1000 |  |  |  | 510 |  | 820 |  |  |  |  |  |  |  |  |  | 
CC(C)C(CS(=O)(=O)c1ccc(-c2cccc(CNC(=O)c3nc4ccccc4c(=O)[nH]3)c2)cc1)N(O)C=O (stereo not given) | 8.5 | > 10000 | 1.3 | 30 | 0.051 | 2.5 | 3 | 18 | 0.35 | 5.3 | 5.4 |  |  |  |  |  |  |  | 
CC(=O)N(O)C(CS(=O)(=O)c1ccc(-c2cccc(CNC(=O)c3nc4ccccc4c(=O)[nH]3)c2)cc1)C(C)C (stereo not given) |  |  | 110 |  | 0.3 |  | 65 |  | 64 |  |  | 45.2 | 99 | 250 | 0.93 (≈ 1.65 µM) | 250 | < 1 | < 0.0167 | 
O=C(NCc1cccc(-c2ccc(CS(=O)(=O)Cc3n[nH]c(=O)[nH]3)cc2)c1)c1nc2scc(-c3cccc(Cl)c3)c2c(=O)[nH]1 |  |  | 1000 |  | 0.38 |  | 86 |  | 34 |  |  |  |  |  |  |  |  |  | 
O=C(NCc1cccc(N2CCN(C(=O)Cc3cc(=O)[nH][nH]3)CC2)c1)c1nc2ccccc2c(=O)[nH]1 |  |  | < 10 |  | 0.36 |  | < 10 |  | < 10 |  |  |  |  |  |  |  |  |  | 
COc1cccc(CNC(=O)c2nc3ccccc3c(=O)[nH]2)c1 |  |  |  |  | 5.6 to 12 |  |  |  |  |  |  |  |  |  |  |  |  |  | 
O=C(NCc1cccc(OCCCOc2nc[nH]n2)c1)c1nc2ccccc2c(=O)[nH]1 |  |  | 22 |  | 0.59 |  | 32 |  | 220 |  |  |  |  |  |  |  |  |  | 
CC(C)C(CS(=O)(=O)c1ccc(-c2cccc(CNC(=O)c3nc4ccccc4c(=O)[nH]3)c2)cc1)N(O)C(N)=O (stereo not given) |  |  | 19 |  | 0.26 |  | < 10 |  | < 10 |  |  |  |  |  |  |  |  |  | 
O=C(NCc1cccc(N2CCN(C(=O)Cc3nnn[nH]3)CC2)c1)c1nc2ccccc2c(=O)[nH]1 |  |  | 32 |  | 1.5 |  | 160 |  | 640 |  |  |  |  |  |  |  |  |  | 
CCOCCC1(Oc2ccc(-c3cccc(CNC(=O)c4nc5ccccc5c(=O)[nH]4)c3)cc2)C(=O)NC(=O)NC1=O | 540 | > 10000 | 56 | > 10000 | 0.23 | 3300 | 110 | > 10000 | 930 | 1600 | 3700 | 9.5 | 22 | 12 | 9.1 (≈ 16 µM) |  | 32 | 0.35 | 0.054
CC(C)[C@H](NS(=O)(=O)c1ccc(-c2cccc(CNC(=O)c3nc4ccccc4c(=O)[nH]3)c2)cc1)C(=O)NO | 8.1 | > 10000 | 0.82 | 7.3 | 0.0032 | 1.5 | 1.9 | 11 | 0.3 | 4.7 | 3.8 |  |  |  |  |  |  |  | 
O=C(NCc1cccc(-c2ccc(CS(=O)(=O)Cc3n[nH]c(=O)[nH]3)cc2)c1)c1nc2ccccc2c(=O)[nH]1 | 9500 | > 10000 | 12 | > 10000 | 0.071 | 2400 | 23 | > 10000 | 150 | > 10000 | > 10000 | 0.7 | 29 | 7 | 0.48 (≈ 0.905 µM) | 13 | 1.3 | 5.38 | 0.32
COc1cccc(CNC(=O)c2nc3scc(-c4cccc(Cl)c4)c3c(=O)[nH]2)c1 |  |  | > 10000 |  | 0.12 |  | 2600 |  | 6300 |  |  |  |  |  |  |  |  |  | 
CC(C)[C@H](NS(=O)(=O)c1ccc(-c2cccc(CNC(=O)c3nc4ccccc4c(=O)[nH]3)c2)cc1)C(=O)O | 16 | > 10000 | 8.9 | 1000 | 0.17 | 30 | 8.3 | 3400 | 2.4 | 36 | 140 |  |  |  |  |  |  |  | 
O=C(NCc1cccc(OCCCS(=O)(=O)N2CCCCC2C(=O)O)c1)c1nc2ccccc2c(=O)[nH]1 (stereo not given) | 300 | > 10000 | 14 | > 10000 | 0.24 | 370 | 14 | > 10000 | 240 | > 10000 | > 10000 |  |  |  |  |  |  |  | 
O=C1NC(=O)C(CC(=O)N2CCN(c3cccc(CNC(=O)c4nc5ccccc5c(=O)[nH]4)c3)CC2)N1 (stereo not given) |  |  | < 10 |  | 0.19 |  | < 10 |  | < 10 |  |  |  |  |  |  |  |  |  | 
